This note sets out measurements from patent publication US11447489B2, “Dihydropyrimidinylthiazole for the treatment and prophylaxis of hepatitis B virus infection” (priority 2017, dated 2022).

The test deals with HBsAg. The test is described as follows: HepG2.2.15 cells primary screen assay: HBsAg assay (CLIA of secreted HBsAg). The test is classed as cell-based, HBV. The following applies: Hepatitis B virus. On the procedure: Example 23: HepG2.2.15 Cells Primary Screen Assay
HepG2.2.15 cells (Acs et al. Proc Natl Acad Sci USA, 84, (1987), 4641-4), a constitutively HBV-expressing cell line were cultured in DMEM+Glutamax-I medium (Invitrogen, Carlsbad, Calif., USA), supplemented with 10% fetal bovine serum (Invitrogen) and G418 (Invitrogen) at a final concentration of 200 mg/L and maintained in 5% CO2 at 37° C.
HepG2.2.15 cells were seeded in duplicate into white, 96-well plates at 1.5×10^4 cells/well. The cells were treated with a three-fold serial dilution series of the compounds in DMSO. The final DMSO concentration in all wells was 1% and DMSO was used as no drug control.
The HBsAg chemiluminescence immunoassay (CLIA) kit (Autobio Diagnostics Co., Zhengzhou, China, Catalog number: CL0310-2) was used to measure the levels of secreted HBV antigens semi-quantitatively. For the detection 50 μL/well culture supernatant was used and HBsAg was quantified using HBsAg chemiluminescence immunoassay (CLIA) kit (Autobio Diagnostics Co., Zhengzhou, China, Catalog number: CL0310-2), 50 μL of the supernatant was transferred to the CLIA assay plate and 50 μL of enzyme conjugate reagent was added into each well. The plates were sealed and gently agitated for 1 hour at room temperature. The supernatant-enzyme-mixture was discarded and wells were washed 6 times with 300 μL of PBS. The residual liquid was removed by plating the CLIA plate […] on absorbent tissue paper. 25 μL of substrates A and B were added to each well. Luminance was measured using a luminometer (Mithras LB 940 Multimode Microplate Reader) after 10 minutes incubation. Dose-response curves were generated and the IC50 value was extrapolated by using the E-WorkBook Suite (ID Business Solutions Ltd., Guildford, UK). The IC50 was defined as the compound concentration (or conditioned media log dilution) at which HBsAg secretion was reduced by 50% compared to the no drug control.
The compounds of the present invention were tested for their capacity to inhibit HBsAg as described herein.
As a reminder, the IC50 is the concentration that inhibits the measured activity by half. Low readings indicate greater potency in that assay, high ones weaker potency in that assay. `COC(=O)C1=C(CN2CCN(CCCCCOc3cc4c(cc3OC)-c3cc(=O)c(C(=O)O)cn3C(C(C)(C)C)C4)CC2)NC(c2nccs2)=N[C@H]1c1ccc(F)cc1Cl` (stereo partly drawn) [Example 2, 6-tert-butyl-9-[5-[4-[[(4R)-4-(2-chloro-4-fluoro-phenyl)-5-methoxycarbonyl-2-thiazol-2-yl-1,4-dihydropyrimidin-6-yl]methyl]piperazin-1-yl]pentoxy]-10-methoxy-2-oxo-6,7-dihydrobenzo[a]quinolizine-3-carboxylic Acid]: the 50% inhibitory concentration (IC50) worked out at 88 nM.

`COC(=O)C1=C(CN2CCN(CCOCCOCCOc3cc4c(cc3OC)-c3cc(=O)c(C(=O)O)cn3C(C(C)(C)C)C4)C(C(=O)O)C2)NC(c2nccs2)=N[C@H]1c1ccc(F)cc1Cl` (stereo partly drawn) [Example 11, 6-tert-butyl-9-[2-[2-[2-[2-carboxy-4-[[(4R)-4-(2-chloro-4-fluoro-phenyl)-5-methoxycarbonyl-2-thiazol-2-yl-1,4-dihydropyrimidin-6-yl]methyl]piperazin-1-yl]ethoxy]ethoxy]ethoxy]-10-methoxy-2-oxo-6,7-dihydrobenzo[a]quinolizine-3-carboxylic Acid] had an IC50 of 6340 nM.

`COC(=O)C1=C(CN2CCN(CCCCOc3cc4c(cc3OC)-c3cc(=O)c(C(=O)O)cn3C(C(C)(C)C)C4)CC2)NC(c2nccs2)=N[C@H]1c1ccc(F)cc1Cl` (stereo partly drawn) [Example 3, 6-tert-butyl-9-[4-[4-[[(4R)-4-(2-chloro-4-fluoro-phenyl)-5-methoxycarbonyl-2-thiazol-2-yl-1,4-dihydropyrimidin-6-yl]methyl]piperazin-1-yl]butoxy]-10-methoxy-2-oxo-6,7-dihydrobenzo[a]quinolizine-3-carboxylic Acid] gave an IC50 of 45 nM.

The compound `COC(=O)C1=C(CN2CCN(CCCCCCOc3cc4c(cc3OC)-c3cc(=O)c(C(=O)O)cn3C(C(C)(C)C)C4)CC2C(=O)O)NC(c2nccs2)=N[C@H]1c1ccc(F)cc1Cl` (stereo partly drawn) [Example 6, 6-tert-butyl-9-[6-[3-carboxy-4-[[(4R)-4-(2-chloro-4-fluoro-phenyl)-5-methoxycarbonyl-2-thiazol-2-yl-1,4-dihydropyrimidin-6-yl]methyl]piperazin-1-yl]hexoxy]-10-methoxy-2-oxo-6,7-dihydrobenzo[a]quinolizine-3-carboxylic Acid] had an IC50 of 262 nM.

In the case of `COC(=O)C1=C(CN(C)CCCCCCOc2cc3c(cc2OC)-c2cc(=O)c(C(=O)O)cn2C(C(C)(C)C)C3)NC(c2nccs2)=N[C@H]1c1ccc(F)cc1Cl` (stereo partly drawn) [Example 9, 6-tert-butyl-9-[6-[[(4R)-4-(2-chloro-4-fluoro-phenyl)-5-methoxycarbonyl-2-thiazol-2-yl-1,4-dihydropyrimidin-6-yl]methyl-methyl-amino]hexoxy]-10-methoxy-2-oxo-6,7-dihydrobenzo[a]quinolizine-3-carboxylic Acid], 113 nM corresponded to half-maximal inhibition (IC50). Against the preceding compound, the IC50 is about 2.3-fold lower.

Take `COC(=O)C1=C(CN2CCN3C(=O)N(CC(C)(C)CC(=O)NCCCCCCOc4cc5c(cc4OC)-c4cc(=O)c(C(=O)O)cn4C(C(C)(C)C)C5)C[C@@H]3C2)NC(c2nccs2)=N[C@H]1c1ccc(F)cc1Cl` (stereo partly drawn) [Example 16, 9-[6-[[4-[(8aS)-7-[[(4R)-4-(2-chloro-4-fluoro-phenyl)-5-methoxycarbonyl-2-thiazol-2-yl-1,4-dihydropyrimidin-6-yl]methyl]-3-oxo-5,6,8,8a-tetrahydro-1H-imidazo[1,5-a]pyrazin-2-yl]-3,3-dimethyl-butanoyl]amino]hexoxy]-6-tert-butyl-10-methoxy-2-oxo-6,7-dihydrobenzo[a]quinolizine-3-carboxylic Acid]: the IC50 is 107 nM.

The compound `COC(=O)C1=C(CN2CCN(CC[C@@H](NCCCCCCOc3cc(N4CCc5nc(-c6ncccn6)ncc5C4C)cc(F)c3F)C(=O)O)CC2)NC(c2nccs2)=N[C@H]1c1ccc(F)cc1Cl` (stereo partly drawn) [Example 21, (2R)-4-[4-[[(4R)-4-(2-chloro-4-fluoro-phenyl)-5-methoxycarbonyl-2-thiazol-2-yl-1,4-dihydropyrimidin-6-yl]methyl]piperazin-1-yl]-2-[6-[2,3-difluoro-5-(5-methyl-2-pyrimidin-2-yl-7,8-dihydro-5H-pyrido[4,3-d]pyrimidin-6-yl)phenoxy]hexylamino]butanoic Acid] had an IC50 of 582 nM. This IC50 is about 5.4-fold higher than that of the compound before.

In turn, `COC(=O)C1=C(CN2CCN(CCC(CCCOc3cc4c(cc3OC)-c3cc(=O)c(C(=O)O)cn3C(C(C)(C)C)C4)C(=O)O)CC2)NC(c2nccs2)=N[C@H]1c1ccc(F)cc1Cl` (stereo partly drawn) [Example 12, 6-tert-butyl-9-[4-carboxy-6-[4-[[(4R)-4-(2-chloro-4-fluoro-phenyl)-5-methoxycarbonyl-2-thiazol-2-yl-1,4-dihydropyrimidin-6-yl]methyl]piperazin-1-yl]hexoxy]-10-methoxy-2-oxo-6,7-dihydrobenzo[a]quinolizine-3-carboxylic Acid] had an IC50 of 740 nM.

`COC(=O)C1=C(CN2CCN3C(=O)N(CC(C)(C)CC(=O)NCCCCCCOc4cc(N5CCc6nc(-c7ncccn7)ncc6C5C)cc(F)c4F)C[C@@H]3C2)NC(c2nccs2)=N[C@H]1c1ccc(F)cc1Cl` (stereo partly drawn) [Example 17, methyl (4R)-6-[[(8aS)-2-[4-[6-[2,3-difluoro-5-[5-methyl-2-pyrimidin-2-yl-7,8-dihydro-5H-pyrido[4,3-d]pyrimidin-6-yl]phenoxy]hexylamino]-2,2-dimethyl-4-oxo-butyl]-3-oxo-5,6,8,8a-tetrahydro-1H-imidazo[1,5-a]pyrazin-7-yl]methyl]-4-(2-chloro-4-fluoro-phenyl)-2-thiazol-2-yl-1,4-dihydropyrimidine-5-carboxylate]: 1190 nM corresponded to half-maximal inhibition (IC50).

The compound `COC(=O)C1=C(CN2CCOC[C@H]2CN(C)CCCCCCOc2cc(N3CCc4nc(-c5ncccn5)ncc4C3C)cc(F)c2F)NC(c2nccs2)=N[C@H]1c1ccc(F)cc1Cl` (stereo partly drawn) [Example 19, methyl (4R)-4-(2-chloro-4-fluoro-phenyl)-6-[[(3R)-3-[[6-[2,3-difluoro-5-(5-methyl-2-pyrimidin-2-yl-7,8-dihydro-5H-pyrido[4,3-d]pyrimidin-6-yl)phenoxy]hexyl-methyl-amino]methyl]morpholin-4-yl]methyl]-2-thiazol-2-yl-1,4-dihydropyrimidine-5-carboxylate] displayed a 50% inhibitory concentration (IC50) of 724 nM.

Regarding `COC(=O)C1=C(CN2CCOC[C@H]2C(=O)NCCCCCCOc2cc3c(cc2OC)-c2cc(=O)c(C(=O)O)cn2C(C(C)(C)C)C3)NC(c2nccs2)=N[C@H]1c1ccc(F)cc1Cl` (stereo partly drawn) [Example 13, 6-tert-butyl-9-[6-[[(3S)-4-[[(4R)-4-(2-chloro-4-fluoro-phenyl)-5-methoxycarbonyl-2-thiazol-2-yl-1,4-dihydropyrimidin-6-yl]methyl]morpholine-3-carbonyl]amino]hexoxy]-10-methoxy-2-oxo-6,7-dihydrobenzo[a]quinolizine-3-carboxylic Acid], the IC50 is 85 nM.

For `COC(=O)C1=C(CN2CCN(CCCCCCOc3cc4c(cc3OC)-c3cc(=O)c(C(=O)O)cn3C(C(C)(C)C)C4)C(C(=O)O)C2)NC(c2nccs2)=N[C@H]1c1ccc(F)cc1Cl` (stereo partly drawn) [Example 7, 6-tert-butyl-9-[6-[2-carboxy-4-[[(4R)-4-(2-chloro-4-fluoro-phenyl)-5-methoxycarbonyl-2-thiazol-2-yl-1,4-dihydropyrimidin-6-yl]methyl]piperazin-1-yl]hexoxy]-10-methoxy-2-oxo-6,7-dihydrobenzo[a]quinolizine-3-carboxylic Acid], it took 190 nM to reach half-maximal inhibition (IC50).
